# Measurements: article PMC8495455, “Discovery of a transdermally deliverable pentapeptide for activating AdipoR1 to promote hair growth” (EMBO Molecular Medicine, 2021)
# Key:
# human DP cells = assay: MTT cell proliferation assay, DP cells; type: cell-based; settings: 48 h
# Text: To design transdermally deliverable AdipoR1 agonist, we further assessed the 15‐mer sequence by cutting it into several 5‐mer peptides (Fig EV1B) (Bos & Meinardi, [2000]). Based on the fact that AdipoRs are expressed in HF cells, including dermal papilla (DP) and outer root sheath (ORS) cells (Won et al, [2012]), we performed a cell proliferation assay on human DP and ORS cells to see if there is any potential biological effect of the 5‐mer peptides on the human HF cells.
# Dermal papilla cells and ORS cells were seeded into a 96‐well plate (1.0 × 10^4 cells/well) with serum‐free culture media for 24 h and then treated with each candidate 5‐mer peptide (in 0.5 μg/ml or 5 μg/ml) for 48 h. After the addition of MTT solution (20 μl, 5 mg/ml) to each well, the cells were incubated for 4 h at 37°C in the dark room and then incubated with dimethyl sulfoxide (DMSO, 200 μl) for 20 min at room temperature. The samples were assessed by measuring the absorbance at 570 nm with an absorbance microplate reader (VersaMax).
# [1] = system: AMPK phosphorylation in ORS cells; assay: Western blot p-AMPK, ORS cells; type: cell-based, human; settings: P5 0 - 50 μM, APN 2.5 μg/ml
# Text: Following the confirmation of the molecular interaction between AdipoR1 and P5, we evaluated the activation of the intracellular signaling pathway by P5. We investigated whether APN treatment on ORS and DP cells could activate AMPK or ERK signaling pathways, which are previously known to be downstream effectors of AdipoR1 (Mao et al, [2006]; Deepa & Dong, [2009]; Shibata et al, [2012]). […] Next, for determination of whether both P5 and APN mediates the phosphorylation of AMPK through AdipoR1 in ORS and DP cells, the cells were transfected with AdipoR1 siRNA (Appendix Fig S1). […] Collectively, P5 activates AMPK signaling pathway through AdipoR1 in ORS and DP cells in vitro.
# Human ORS and DP cells or skin tissue were lysed (RIPA lysis buffer; #20‐188; Merck Millipore). The obtained protein was then separated by 8% SDS–PAGE and transferred to a polyvinylidene fluoride membrane (Amersham). The protein transferred membranes were incubated overnight with the specific antibodies. […] Antibody‐antigen complexes detected by enhanced chemiluminescent substrate (Thermo Fisher) were captured and quantified by Amersham imager 680 systems (GE Healthcare).
# HGF mRNA = assay: qRT-PCR growth factor gene expression in DP cells, HGF; type: cell-based, human; settings: for mRNA_HGF: DP cells
# Text: (§1) Next, we investigated the downstream effects of P5 on hair growth factor genes and proteins in DP cells. […] We tested whether P5 can also increase the mRNA levels and proteins of hair growth factors in DP cells: IGF‐1, VEGF, HGF, platelet‐derived growth factor alpha (PDGFA), and fibroblast growth factor (FGF) 7, which are known to induce or maintain the anagen phase of the hair cycle (Jindo et al, [1994]; Philpott et al, [1994]; Yano et al, [2001]; Jang, [2005]; Tomita et al, [2006]; Iino et al, [2007]).
# Total RNA was isolated from P5‐treated DP cells using RNAiso Plus (#9109; TaKaRa). We used the total RNA (1 µg) for cDNA synthesis using a RevertAid First Strand cDNA Synthesis Kit (Thermo Fisher) according to the manufacturer's instructions. The mRNA expression levels were quantified on a 7500 Real‐time PCR System (Thermo Fisher) using TB Green Premix Ex Taq (TaKaRa Bio): human IGF‐1, VEGF, HGF, PDGFA, FGF7, and glyceraldehyde 3‐phosphate dehydrogenase (GAPDH) (Appendix Table S2). The relative expression levels of each gene were determined by the 2^‐ΔΔCT method.
# IGF-1 protein = assay: Growth factor protein quantitation in DP cell medium, IGF-1; type: cell-based, human; settings: for protein_IGF1: DP cell medium
# Text: as §1
# Human DP cells were grown on a 100‐mm cell culture dish to 100% confluency. After washed by PBS three times, the cells were cultured with serum‐free DMEM and treated with P5. After 48 h, the medium was collected and filtered by a […]. The filtrate was then concentrated using a centrifugal concentrator (Vivaspin 6, 10‐kDa molecular weight cutoff, centrifuged 2,600 g at 4°C for 13 min, Sartorius Stedim Biotech). The signals of each protein in the concentrated media were detected and quantified, based on the enzyme‐linked immunosorbent assay (Human Cytokine Antibody Array C2000, RayBiotech).
# [2] = P5 5μM, relative to Control = 1, replicate 1
# [3] = P5 5μM, relative to Control = 1, replicate 2
# [4] = P5 5μM, relative to Control = 1, replicate 3
# [5] = P5 25μM, relative to Control = 1, replicate 1
# [6] = P5 25μM, relative to Control = 1, replicate 2
# [7] = P5 25μM, relative to Control = 1, replicate 3
substance,measurement,setting,value
"GLYYF [P5, GST-fused (GST-P5) in pulldown assays]","Relative cell proliferation, DP","human DP cells; 0.5μg/ml, control = 1, replicate 1",1.11
same,"Relative cell proliferation, DP","human DP cells; 0.5μg/ml, control = 1, replicate 2",1.117
same,"Relative cell proliferation, DP","human DP cells; 0.5μg/ml, control = 1, replicate 3",1.106
same,"Relative cell proliferation, DP","human DP cells; 5μg/ml, control = 1, replicate 1",1.094
same,"Relative cell proliferation, DP","human DP cells; 5μg/ml, control = 1, replicate 2",1.179
same,"Relative cell proliferation, DP","human DP cells; 5μg/ml, control = 1, replicate 3",1.068
same,"Relative cell proliferation, DP","human DP cells; 5μg/ml, control = 1, replicate 4",1.07
same,"Relative cell proliferation, DP","human DP cells; 5μg/ml, control = 1, replicate 5",1.01
same,"Cell proliferative effect, DP cells","human DP cells; 0.5 or 5 μg/ml, Paired t-test vs control",significant cell proliferative effects
same,"Phosphorylation of AMPK, ORS cells",[1],concentration‐dependent phosphorylation of AMPK
same,mRNA_HGF,HGF mRNA; [2],3.441
same,mRNA_HGF,HGF mRNA; [3],1.115
same,mRNA_HGF,HGF mRNA; [4],3.233
same,mRNA_HGF,"HGF mRNA; P5 5μM, relative to Control = 1, replicate 4",5.51
same,mRNA_HGF,"HGF mRNA; P5 5μM, relative to Control = 1, replicate 5",1.947
same,mRNA_HGF,"HGF mRNA; P5 5μM, relative to Control = 1, replicate 6",1.893
same,mRNA_HGF,HGF mRNA; [5],6.428
same,mRNA_HGF,HGF mRNA; [6],1.581
same,mRNA_HGF,HGF mRNA; [7],2.359
same,mRNA_HGF,"HGF mRNA; P5 25μM, relative to Control = 1, replicate 4",5.518
same,mRNA_HGF,"HGF mRNA; P5 25μM, relative to Control = 1, replicate 5",2.408
same,mRNA_HGF,"HGF mRNA; P5 25μM, relative to Control = 1, replicate 6",2.218
same,HGF mRNA expression,"HGF mRNA; P5-treated DP cells, n = 6",significantly increased
same,protein_IGF1,IGF-1 protein; [2],0.9827
same,protein_IGF1,IGF-1 protein; [3],1.413
same,protein_IGF1,IGF-1 protein; [4],2.07
same,protein_IGF1,IGF-1 protein; [5],1.764
same,protein_IGF1,IGF-1 protein; [6],4.926
same,protein_IGF1,IGF-1 protein; [7],5.716
same,IGF-1 protein expression level,"IGF-1 protein; P5-treated DP cells, 48 h medium, n = 3",elevated
